{"source": "patent EP1123702A1", "about": "“ANALGESICS” (Eisai Co., Ltd., priority 1998, dated 2000)", "key": {"[1]": {"test": "Muscle relaxing action (in vivo)", "settings": "method of JP98/01481 or JP-A 10-281752", "description": "There are also shown a serotonin (5HT) receptor binding action (RBA; in vitro) and a muscle relaxing action (in vivo) measured according to a method described in JP98/01481 or JP-A 10-281752. (In the table, \"n.t.\" means \"not tested\")."}, "[2]": {"target": "5HT2 (Homo sapiens, UniProt P28223)", "sequence (P28223 whole entry, species assumed)": "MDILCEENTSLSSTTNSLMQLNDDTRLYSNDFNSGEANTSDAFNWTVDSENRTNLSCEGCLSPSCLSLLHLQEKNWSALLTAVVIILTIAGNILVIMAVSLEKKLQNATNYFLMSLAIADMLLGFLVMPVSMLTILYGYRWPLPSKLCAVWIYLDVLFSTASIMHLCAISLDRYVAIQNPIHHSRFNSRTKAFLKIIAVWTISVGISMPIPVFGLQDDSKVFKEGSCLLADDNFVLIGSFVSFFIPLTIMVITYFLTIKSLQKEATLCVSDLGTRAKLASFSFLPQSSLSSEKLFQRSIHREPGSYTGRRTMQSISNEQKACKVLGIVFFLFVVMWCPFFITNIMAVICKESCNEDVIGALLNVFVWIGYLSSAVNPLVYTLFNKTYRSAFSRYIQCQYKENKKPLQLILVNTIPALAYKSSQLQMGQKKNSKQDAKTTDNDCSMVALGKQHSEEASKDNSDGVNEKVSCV", "test": "Serotonin (5HT) receptor binding action (RBA; in vitro), 5HT2", "settings": "method of JP98/01481 or JP-A 10-281752"}, "[3]": {"target": "T1, 5HT1A (Homo sapiens, UniProt P08908)", "T1 sequence (P08908 1-422)": "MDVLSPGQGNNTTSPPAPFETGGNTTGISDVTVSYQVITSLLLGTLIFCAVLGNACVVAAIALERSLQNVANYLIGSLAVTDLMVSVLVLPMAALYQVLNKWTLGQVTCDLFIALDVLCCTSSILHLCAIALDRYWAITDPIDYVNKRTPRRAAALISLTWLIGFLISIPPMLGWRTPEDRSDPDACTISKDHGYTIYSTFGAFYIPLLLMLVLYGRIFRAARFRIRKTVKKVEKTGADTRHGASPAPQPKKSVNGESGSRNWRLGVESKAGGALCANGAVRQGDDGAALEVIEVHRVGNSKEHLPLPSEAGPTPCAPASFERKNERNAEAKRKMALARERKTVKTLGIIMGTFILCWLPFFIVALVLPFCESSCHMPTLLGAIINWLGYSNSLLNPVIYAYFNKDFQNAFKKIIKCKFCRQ", "test": "Serotonin (5HT) receptor binding action (RBA; in vitro), 5HT1A", "settings": "method of JP98/01481 or JP-A 10-281752"}, "[4]": {"system": "writhing behavior", "test": "Analgesic action by a writhing method using acetic acid", "format": "in vivo, Male mice of a ddY strain", "settings": "sc; statistically minimum effective dose; 0.6% acetic acid ip 15 minutes after the drug, writhing counted for ten minutes; mice"}}, "note": "Structures can show the parent of a compound that is named as a salt."}
{"smiles": "CC(=O)NCc1ccc2ccn(C3CCN(CCc4ccc(F)cc4)CC3)c2c1", "note": "[(1), 1-[1-(4-Fluorophenethyl)piperidin-4-yl]-6-(N-acetylaminomethyl)indole]", "values": [{"measurement": "Muscle-Relaxing Action (ip)", "setting": "[1]", "value": 0.3, "unit": "mg/kg"}, {"measurement": "Muscle-Relaxing Action (po)", "setting": "[1]", "value": 1, "unit": "mg/kg"}, {"measurement": "Ki", "setting": "[2]", "value": 1.38, "unit": "nM"}, {"measurement": "Ki", "setting": "[3]", "value": 0.51, "unit": "nM"}, {"measurement": "Analgesic Action (minimum effective dose)", "setting": "[4]", "value": 0.3, "unit": "mg/kg"}]}
{"smiles": "CCC(=O)NCc1ccc2ccn(C3CCN(CCc4ccc(F)cc4)CC3)c2c1", "note": "[(2), 1-[1-(4-fluorophenethyl)piperidin-4-yl]-6-(N-propionylaminomethyl)indole]", "values": [{"measurement": "Muscle-Relaxing Action (ip)", "setting": "[1]", "value": 0.3, "unit": "mg/kg"}, {"measurement": "Muscle-Relaxing Action (po)", "setting": "[1]", "value": 3, "unit": "mg/kg"}, {"measurement": "Ki", "setting": "[2]", "value": 2.6, "unit": "nM"}, {"measurement": "Ki", "setting": "[3]", "value": 1, "unit": "nM"}, {"measurement": "Analgesic Action (minimum effective dose)", "setting": "[4]", "value": 3, "unit": "mg/kg"}]}
{"smiles": "CC(=O)NCc1ccc2ccn(C3CCN(CCc4ccccc4F)CC3)c2c1", "note": "[(4), 1-[1-(2-fluorophenethyl)piperidin-4-yl]-6-(N-acetylaminomethyl)indole]", "values": [{"measurement": "Muscle-Relaxing Action (po)", "setting": "[1]", "value": 10, "unit": "mg/kg"}, {"measurement": "Ki", "setting": "[2]", "value": 0.75, "unit": "nM"}, {"measurement": "Ki", "setting": "[3]", "value": 1.58, "unit": "nM"}, {"measurement": "Analgesic Action (minimum effective dose)", "setting": "[4]", "value": 3, "unit": "mg/kg"}]}
{"smiles": "CNC(=O)Cc1ccc2ccn(C3CCN(CCc4ccccc4F)CC3)c2c1", "note": "[(10), 1-[1-(2-fluorophenethyl)piperidin-4-yl]-6-(N-methylamidemethyl)indole]", "values": [{"measurement": "Muscle-Relaxing Action (ip)", "setting": "[1]", "value": 3, "unit": "mg/kg"}, {"measurement": "Muscle-Relaxing Action (po)", "setting": "[1]", "value": "< 1", "unit": "mg/kg"}, {"measurement": "Ki", "setting": "[2]", "value": 1.23, "unit": "nM"}, {"measurement": "Ki", "setting": "[3]", "value": 4.02, "unit": "nM"}, {"measurement": "Analgesic Action (minimum effective dose)", "setting": "[4]", "value": 3, "unit": "mg/kg"}]}
{"smiles": "NC(=O)Cc1ccc2ccn(C3CCN(CCc4ccccc4F)CC3)c2c1", "note": "[(13), 1-[1-(2-fluorophenethyl)piperidin-4-yl]-6-amidemethylindole]", "values": [{"measurement": "Muscle-Relaxing Action (ip)", "setting": "[1]", "value": 1, "unit": "mg/kg"}, {"measurement": "Muscle-Relaxing Action (po)", "setting": "[1]", "value": 3, "unit": "mg/kg"}, {"measurement": "Ki", "setting": "[2]", "value": 2.81, "unit": "nM"}, {"measurement": "Ki", "setting": "[3]", "value": 0.59, "unit": "nM"}, {"measurement": "Analgesic Action (minimum effective dose)", "setting": "[4]", "value": 3, "unit": "mg/kg"}]}
{"smiles": "CC(=O)NCc1ccc2c(c1)N(C1CCN(CCc3ccc(F)cc3)CC1)CC2", "note": "[(14), 1-[1-(4-fluorophenethyl)piperidin-4-yl]-6-(N-acetylaminomethyl)indoline]", "values": [{"measurement": "Muscle-Relaxing Action (ip)", "setting": "[1]", "value": 0.3, "unit": "mg/kg"}, {"measurement": "Muscle-Relaxing Action (po)", "setting": "[1]", "value": 0.3, "unit": "mg/kg"}, {"measurement": "Ki", "setting": "[2]", "value": 0.43, "unit": "nM"}, {"measurement": "Ki", "setting": "[3]", "value": 6.43, "unit": "nM"}, {"measurement": "Analgesic Action (minimum effective dose)", "setting": "[4]", "value": 0.3, "unit": "mg/kg"}]}
{"smiles": "CCN1CCN(c2nc(-c3ccc(OCCO)cc3)cc3ccccc23)CC1", "note": "[(16), 1-(4-ethylpiperazin-1-yl)-3-(4-hydroxyethoxyphenyl)isoquinoline]", "values": [{"measurement": "Muscle-Relaxing Action (ip)", "setting": "[1]", "value": 1, "unit": "mg/kg"}, {"measurement": "Muscle-Relaxing Action (po)", "setting": "[1]", "value": 3, "unit": "mg/kg"}, {"measurement": "Ki", "setting": "[2]", "value": 4.2, "unit": "nM"}, {"measurement": "Ki", "setting": "[3]", "value": 31.5, "unit": "nM"}, {"measurement": "Analgesic Action (minimum effective dose)", "setting": "[4]", "value": 1, "unit": "mg/kg"}]}
{"smiles": "CCC(O)c1ccc(-c2cc3ccccc3c(N3CCN(CC)CC3)n2)cc1", "note": "(stereo not drawn) [(17), 1-(4-ethylpiperazin-1-yl)-3-[4-(1-hydroxypropyl)phenyl]isoquinoline]", "values": [{"measurement": "Muscle-Relaxing Action (ip)", "setting": "[1]", "value": 1, "unit": "mg/kg"}, {"measurement": "Muscle-Relaxing Action (po)", "setting": "[1]", "value": 10, "unit": "mg/kg"}, {"measurement": "Ki", "setting": "[2]", "value": 1.6, "unit": "nM"}, {"measurement": "Ki", "setting": "[3]", "value": 6.9, "unit": "nM"}, {"measurement": "Analgesic Action (minimum effective dose)", "setting": "[4]", "value": 1, "unit": "mg/kg"}]}
{"smiles": "CCCNC(=O)c1ccc(-c2cc3ccccc3c(N3CCN(CC)CC3)n2)cc1", "note": "[(18), 1-(4-ethylpiperazin-1-yl) -3-[4-(N-propylamide)phenyl]isoquinoline hydrochloride]", "values": [{"measurement": "Muscle-Relaxing Action (ip)", "setting": "[1]", "value": "> 10", "unit": "mg/kg"}, {"measurement": "Muscle-Relaxing Action (po)", "setting": "[1]", "value": 3, "unit": "mg/kg"}, {"measurement": "Ki", "setting": "[2]", "value": 1.1, "unit": "nM"}, {"measurement": "Ki", "setting": "[3]", "value": 14.6, "unit": "nM"}, {"measurement": "Analgesic Action (minimum effective dose)", "setting": "[4]", "value": 1, "unit": "mg/kg"}]}
{"smiles": "CCN1CCN(c2nc(-c3ccc(CCC(C)(C)O)c(F)c3)cc3ccccc23)CC1.Cl", "note": "[(19), 1-(4-ethylpiperazin-1-yl)-3-[3-fluoro-4-(3-hydroxy-3-methylbutyl)phenyl]isoquinoline hydrochloride]", "values": [{"measurement": "Muscle-Relaxing Action (ip)", "setting": "[1]", "value": "< 10", "unit": "mg/kg"}, {"measurement": "Muscle-Relaxing Action (po)", "setting": "[1]", "value": 3, "unit": "mg/kg"}, {"measurement": "Ki", "setting": "[2]", "value": 0.7, "unit": "nM"}, {"measurement": "Ki", "setting": "[3]", "value": 31.2, "unit": "nM"}, {"measurement": "Analgesic Action (minimum effective dose)", "setting": "[4]", "value": 1, "unit": "mg/kg"}]}
{"smiles": "CCN1CCN(c2nc(-c3ccc(CCCO)c(OC)c3)cc3ccccc23)CC1.Cl", "note": "[(20), 1-(4-ethylpiperazin-1-yl)-3-(3-methoxy-4-hydroxypropylphenyl)isoquinoline hydrochloride]", "values": [{"measurement": "Muscle-Relaxing Action (po)", "setting": "[1]", "value": 10, "unit": "mg/kg"}, {"measurement": "Ki", "setting": "[2]", "value": 10.9, "unit": "nM"}, {"measurement": "Ki", "setting": "[3]", "value": 7.9, "unit": "nM"}, {"measurement": "Analgesic Action (minimum effective dose)", "setting": "[4]", "value": 3, "unit": "mg/kg"}]}
{"smiles": "CCN1CCN(c2nc(-c3ccc(OCCO)c(C#N)c3)cc3ccccc23)CC1.Cl", "note": "[(21), 1-(4-ethylpiperazin-1-yl)-3-(3-cyano-4-hydroxyethoxyphenyl)isoquinoline hydrochloride]", "values": [{"measurement": "Muscle-Relaxing Action (ip)", "setting": "[1]", "value": 10, "unit": "mg/kg"}, {"measurement": "Ki", "setting": "[2]", "value": 4.5, "unit": "nM"}, {"measurement": "Ki", "setting": "[3]", "value": 13.4, "unit": "nM"}, {"measurement": "Analgesic Action (minimum effective dose)", "setting": "[4]", "value": 1, "unit": "mg/kg"}]}
{"smiles": "CCCS(=O)(=O)NCc1ccc(-c2cc3ccccc3c(N3CCN(CC)CC3)n2)cc1Cl.Cl", "note": "[(23), 1-(4-ethylpiperazin-1-yl)-3-(3-chloro-4-propylsulfonylaminomethylphenyl)isoquinoline hydrochloride]", "values": [{"measurement": "Muscle-Relaxing Action (po)", "setting": "[1]", "value": "> 30", "unit": "mg/kg"}, {"measurement": "Ki", "setting": "[2]", "value": 0.7, "unit": "nM"}, {"measurement": "Ki", "setting": "[3]", "value": 0.9, "unit": "nM"}, {"measurement": "Analgesic Action (minimum effective dose)", "setting": "[4]", "value": 3, "unit": "mg/kg"}]}
{"smiles": "CCN1CCN(c2nc(-c3ccc(OCC(C)O)cc3)cc3sccc23)CC1.Cl", "note": "(stereo not drawn) [(24), 4-(4-ethylpiperazin-1-yl)-6-[4-(2-hydroxypropoxy)phenyl]thieno[3,2-c]pyridine hydrochloride]", "values": [{"measurement": "Muscle-Relaxing Action (ip)", "setting": "[1]", "value": 1, "unit": "mg/kg"}, {"measurement": "Muscle-Relaxing Action (po)", "setting": "[1]", "value": 3, "unit": "mg/kg"}, {"measurement": "Ki", "setting": "[2]", "value": 0.9, "unit": "nM"}, {"measurement": "Ki", "setting": "[3]", "value": 27.9, "unit": "nM"}, {"measurement": "Analgesic Action (minimum effective dose)", "setting": "[4]", "value": 1, "unit": "mg/kg"}]}
{"smiles": "CCN1CCN(c2nc(-c3ccc(OCC(C)(C)O)cc3)cc3sccc23)CC1.Cl", "note": "[(25), 4-(4-ethylpiperazin-1-yl)-6-[4-(2-hydroxy-2-methylpropoxy)phenyl]thieno[3,2-c]pyridine hydrochloride]", "values": [{"measurement": "Muscle-Relaxing Action (ip)", "setting": "[1]", "value": 0.3, "unit": "mg/kg"}, {"measurement": "Muscle-Relaxing Action (po)", "setting": "[1]", "value": 1, "unit": "mg/kg"}, {"measurement": "Ki", "setting": "[2]", "value": 1.4, "unit": "nM"}, {"measurement": "Ki", "setting": "[3]", "value": 54.9, "unit": "nM"}, {"measurement": "Analgesic Action (minimum effective dose)", "setting": "[4]", "value": 10, "unit": "mg/kg"}]}
{"smiles": "CCN1CCN(c2nc(-c3ccc(C(C)O)cc3)cc3sccc23)CC1.O=C(O)C(=O)O", "note": "(stereo not drawn) [(26), 4-(4-ethylpiperazin-1-yl)-6-[4-(1-hydroxyethyl)phenyl]thieno[3,2-c]pyridine oxalate]", "values": [{"measurement": "Muscle-Relaxing Action (po)", "setting": "[1]", "value": "< 3", "unit": "mg/kg"}, {"measurement": "Ki", "setting": "[2]", "value": 16.9, "unit": "nM"}, {"measurement": "Ki", "setting": "[3]", "value": 15, "unit": "nM"}, {"measurement": "Analgesic Action (minimum effective dose)", "setting": "[4]", "value": 1, "unit": "mg/kg"}]}
